In ChEMBL document CHEMBL1201862, “PubChem BioAssay data set” (2004):
Active and inactive are the calls of the source.

Key:
HEK293 [1] = experiment: cells; conditions: Homo sapiens
HEK293 [2] = experiment: inhibition of NOD1-driven NF-kB reporter – cell-based, luminescence, uHTS, primary screen (AID 1578); format: functional; conditions: Homo sapiens
Tumor necrosis factor = Tumor necrosis factor (Homo sapiens, UniProt P01375); experiment: analog potency on TNFa NF-kB signaling – cell-based, revised, SAR follow-up (AID 2337); format: functional
Tumor necrosis factor, sequence (P01375 whole entry): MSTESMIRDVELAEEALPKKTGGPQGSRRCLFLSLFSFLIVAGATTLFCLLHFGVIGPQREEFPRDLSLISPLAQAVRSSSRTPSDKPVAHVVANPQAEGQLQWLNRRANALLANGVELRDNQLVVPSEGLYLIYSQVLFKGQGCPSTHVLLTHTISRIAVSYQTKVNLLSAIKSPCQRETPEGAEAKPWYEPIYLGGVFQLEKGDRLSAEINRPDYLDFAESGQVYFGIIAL

HEK293 [3] = experiment: NOD2 signaling inhibitors in MDP-stimulated cells, cell-based, uHTS, luminescence (AID 2001); format: functional; conditions: Homo sapiens
HEK293 [4] = experiment: cells; format: functional, cell-based; conditions: Homo sapiens
[5] = biological target: Nucleotide-binding oligomerization domain-containing protein 1 (Homo sapiens, UniProt Q9Y239); experiment: blockers of NOD1 pathway activity – revised, SAR follow-up (AID 2333); format: functional
Nucleotide-binding oligomerization domain-containing protein 1, sequence (Q9Y239 whole entry, the tested form may be a part): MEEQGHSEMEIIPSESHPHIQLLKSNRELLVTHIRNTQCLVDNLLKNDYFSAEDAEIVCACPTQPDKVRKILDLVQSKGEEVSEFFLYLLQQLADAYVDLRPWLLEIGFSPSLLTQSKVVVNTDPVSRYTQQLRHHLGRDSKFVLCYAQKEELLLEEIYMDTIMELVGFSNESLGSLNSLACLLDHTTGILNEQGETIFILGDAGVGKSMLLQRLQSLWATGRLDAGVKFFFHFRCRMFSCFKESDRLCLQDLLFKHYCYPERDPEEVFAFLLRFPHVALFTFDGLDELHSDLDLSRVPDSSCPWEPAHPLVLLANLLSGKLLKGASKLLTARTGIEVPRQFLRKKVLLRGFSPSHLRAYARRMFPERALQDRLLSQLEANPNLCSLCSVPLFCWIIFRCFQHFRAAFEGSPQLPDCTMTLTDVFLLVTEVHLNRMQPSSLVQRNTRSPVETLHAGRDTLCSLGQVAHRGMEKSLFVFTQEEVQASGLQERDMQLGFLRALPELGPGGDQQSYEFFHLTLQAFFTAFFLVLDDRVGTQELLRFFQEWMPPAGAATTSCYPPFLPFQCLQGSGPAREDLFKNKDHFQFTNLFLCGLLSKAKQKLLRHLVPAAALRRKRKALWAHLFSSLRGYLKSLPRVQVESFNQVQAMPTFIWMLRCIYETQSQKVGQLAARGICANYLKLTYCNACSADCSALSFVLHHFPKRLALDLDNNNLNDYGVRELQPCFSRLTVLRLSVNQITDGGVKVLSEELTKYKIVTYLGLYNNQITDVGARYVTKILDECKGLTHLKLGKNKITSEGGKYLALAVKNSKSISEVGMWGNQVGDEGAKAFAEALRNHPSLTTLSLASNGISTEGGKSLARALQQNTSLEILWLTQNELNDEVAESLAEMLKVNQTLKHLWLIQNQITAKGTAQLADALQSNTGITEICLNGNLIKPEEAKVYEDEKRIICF

HEK293 [6] = experiment: cells; format: functional, cell-based; conditions: Homo sapiens; remark: listed apart in the source
[7] = biological target: T1, Microphthalmia-associated transcription factor (Homo sapiens, UniProt O75030); experiment: reducers of TRPM1 reporter luminescence, concentration series – cell-based, SK-MEL-5, cherry-picked, set 3, MITF inhibitor project, dose response (AID 493073); format: functional;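 further: SK-MEL-5 melanoma cells with luciferase driven by the MITF target TRPM1 promoter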
T1 sequence (O75030 whole entry): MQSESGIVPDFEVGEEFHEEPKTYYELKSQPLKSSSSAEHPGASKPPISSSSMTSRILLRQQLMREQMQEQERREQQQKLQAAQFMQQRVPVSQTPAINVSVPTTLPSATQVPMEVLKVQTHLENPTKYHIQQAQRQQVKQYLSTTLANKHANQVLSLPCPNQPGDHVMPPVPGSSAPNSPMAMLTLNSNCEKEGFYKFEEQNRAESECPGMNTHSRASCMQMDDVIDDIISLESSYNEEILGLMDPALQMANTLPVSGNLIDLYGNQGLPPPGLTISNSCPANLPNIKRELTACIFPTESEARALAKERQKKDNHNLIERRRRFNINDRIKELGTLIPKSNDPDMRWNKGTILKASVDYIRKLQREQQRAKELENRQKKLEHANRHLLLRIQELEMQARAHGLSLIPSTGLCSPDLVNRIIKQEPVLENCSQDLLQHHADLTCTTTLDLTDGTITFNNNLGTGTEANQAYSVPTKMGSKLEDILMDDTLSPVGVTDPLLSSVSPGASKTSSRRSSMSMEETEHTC

[8] = biological target: T2, Sphingosine 1-phosphate receptor 4 (Homo sapiens, UniProt O95977); experiment: Fluorescence dose response cell-based high throughput screening assay for agonists of the Sphingosine 1-Phosphate Receptor 4 (S1P4). [Related pubchem assays: 1509 (Primary screen.), 1523 (Confirmation screen in triplicates.)]; format: functional
T2 sequence (O95977 whole entry): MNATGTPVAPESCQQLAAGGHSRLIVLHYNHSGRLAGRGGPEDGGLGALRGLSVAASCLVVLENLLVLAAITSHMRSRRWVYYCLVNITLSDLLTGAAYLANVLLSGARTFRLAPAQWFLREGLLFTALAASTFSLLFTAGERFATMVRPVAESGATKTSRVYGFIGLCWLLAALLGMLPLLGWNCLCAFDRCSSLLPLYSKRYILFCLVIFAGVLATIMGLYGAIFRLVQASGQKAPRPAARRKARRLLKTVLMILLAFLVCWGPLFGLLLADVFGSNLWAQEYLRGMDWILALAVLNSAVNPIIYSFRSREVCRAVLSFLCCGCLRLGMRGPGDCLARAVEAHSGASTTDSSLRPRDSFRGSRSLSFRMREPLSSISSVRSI

[9] = biological target: Sphingosine 1-phosphate receptor 1 (Homo sapiens, UniProt P21453); experiment: Fluorescence-based counterscreen assay for S1P4 agonists: Cell-based dose response high throughput screening assay to identify agonists of the Sphingosine 1-Phosphate Receptor 1 (S1P1). [Related pubchem assays (depositor defined):AID1509, AID1523, AID1801, AID463107, AID463118, AID463119, AID463122, AID463123, AID463129, AID463225, AID504400, AID504460]; format: functional
Sphingosine 1-phosphate receptor 1, sequence (P21453 whole entry): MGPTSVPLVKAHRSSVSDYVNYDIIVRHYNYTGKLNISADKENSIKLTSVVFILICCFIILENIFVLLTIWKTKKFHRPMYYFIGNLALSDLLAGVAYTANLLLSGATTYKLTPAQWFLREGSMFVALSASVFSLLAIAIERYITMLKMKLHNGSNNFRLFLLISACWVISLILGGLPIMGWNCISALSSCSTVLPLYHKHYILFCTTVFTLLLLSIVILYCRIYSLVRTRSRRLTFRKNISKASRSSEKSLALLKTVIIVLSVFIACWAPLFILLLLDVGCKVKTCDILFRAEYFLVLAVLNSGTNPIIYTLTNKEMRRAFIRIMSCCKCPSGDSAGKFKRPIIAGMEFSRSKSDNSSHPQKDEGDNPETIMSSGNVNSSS

Coagulation factor XII = biological target: T3, Coagulation factor XII (Homo sapiens, UniProt P00748); experiment: activated coagulation factor XII inhibitor potency, concentration-effect curve, cell-free (AID 716); format: functional
T3 sequence (P00748 whole entry): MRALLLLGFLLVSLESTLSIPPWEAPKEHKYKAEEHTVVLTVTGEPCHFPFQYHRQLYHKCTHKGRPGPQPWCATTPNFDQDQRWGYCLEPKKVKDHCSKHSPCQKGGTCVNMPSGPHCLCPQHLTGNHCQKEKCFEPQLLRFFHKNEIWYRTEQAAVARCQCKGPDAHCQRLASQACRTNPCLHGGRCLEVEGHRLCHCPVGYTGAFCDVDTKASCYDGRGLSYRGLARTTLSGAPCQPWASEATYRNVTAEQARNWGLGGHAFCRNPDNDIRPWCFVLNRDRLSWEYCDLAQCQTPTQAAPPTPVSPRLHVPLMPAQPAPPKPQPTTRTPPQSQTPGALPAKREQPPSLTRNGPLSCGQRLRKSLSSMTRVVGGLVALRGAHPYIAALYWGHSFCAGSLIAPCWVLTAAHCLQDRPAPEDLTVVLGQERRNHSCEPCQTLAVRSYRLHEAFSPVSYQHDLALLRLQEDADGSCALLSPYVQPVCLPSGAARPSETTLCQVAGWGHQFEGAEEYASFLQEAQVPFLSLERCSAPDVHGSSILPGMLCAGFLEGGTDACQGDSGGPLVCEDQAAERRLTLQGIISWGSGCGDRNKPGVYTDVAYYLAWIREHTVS

[10] = biological target: T4, Alkaline phosphatase, tissue-nonspecific isozyme (Homo sapiens, UniProt P05186); experiment: potency against alkaline phosphatase TNAP – biochemical, luminescent, dose response, SAR follow-up (AID 1056)
T4 sequence (P05186 whole entry): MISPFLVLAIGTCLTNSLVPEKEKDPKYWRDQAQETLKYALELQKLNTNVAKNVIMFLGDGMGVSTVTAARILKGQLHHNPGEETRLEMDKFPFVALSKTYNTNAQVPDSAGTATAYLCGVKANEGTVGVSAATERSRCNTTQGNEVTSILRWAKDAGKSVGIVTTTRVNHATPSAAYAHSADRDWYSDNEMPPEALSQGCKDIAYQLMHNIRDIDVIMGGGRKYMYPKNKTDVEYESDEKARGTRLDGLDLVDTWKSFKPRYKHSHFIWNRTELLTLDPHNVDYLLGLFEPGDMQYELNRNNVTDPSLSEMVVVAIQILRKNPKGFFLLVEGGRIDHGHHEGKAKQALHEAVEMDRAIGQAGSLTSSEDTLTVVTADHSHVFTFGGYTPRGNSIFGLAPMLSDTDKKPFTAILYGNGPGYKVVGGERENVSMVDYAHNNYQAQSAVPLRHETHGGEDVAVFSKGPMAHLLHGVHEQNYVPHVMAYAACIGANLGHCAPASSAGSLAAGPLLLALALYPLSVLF

[11] = biological target: Glyceraldehyde-3-phosphate dehydrogenase (Homo sapiens, UniProt P04406)
Glyceraldehyde-3-phosphate dehydrogenase, sequence (P04406 whole entry): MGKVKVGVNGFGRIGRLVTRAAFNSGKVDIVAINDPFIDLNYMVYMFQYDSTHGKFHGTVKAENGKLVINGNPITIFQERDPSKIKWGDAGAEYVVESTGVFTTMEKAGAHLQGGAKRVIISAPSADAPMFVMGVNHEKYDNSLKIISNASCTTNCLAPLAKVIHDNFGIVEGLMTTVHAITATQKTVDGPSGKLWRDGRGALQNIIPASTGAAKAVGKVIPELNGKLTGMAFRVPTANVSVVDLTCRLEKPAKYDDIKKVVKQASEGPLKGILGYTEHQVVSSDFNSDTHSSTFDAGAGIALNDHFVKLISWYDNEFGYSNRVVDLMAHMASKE

[12] = biological target: T5, E3 ubiquitin-protein ligase XIAP (Homo sapiens, UniProt P98170); experiment: small molecules displacing peptide from XIAP – biochemical, IAP family, fluorescence polarization (AID 1018); format: functional
T5 sequence (P98170 whole entry): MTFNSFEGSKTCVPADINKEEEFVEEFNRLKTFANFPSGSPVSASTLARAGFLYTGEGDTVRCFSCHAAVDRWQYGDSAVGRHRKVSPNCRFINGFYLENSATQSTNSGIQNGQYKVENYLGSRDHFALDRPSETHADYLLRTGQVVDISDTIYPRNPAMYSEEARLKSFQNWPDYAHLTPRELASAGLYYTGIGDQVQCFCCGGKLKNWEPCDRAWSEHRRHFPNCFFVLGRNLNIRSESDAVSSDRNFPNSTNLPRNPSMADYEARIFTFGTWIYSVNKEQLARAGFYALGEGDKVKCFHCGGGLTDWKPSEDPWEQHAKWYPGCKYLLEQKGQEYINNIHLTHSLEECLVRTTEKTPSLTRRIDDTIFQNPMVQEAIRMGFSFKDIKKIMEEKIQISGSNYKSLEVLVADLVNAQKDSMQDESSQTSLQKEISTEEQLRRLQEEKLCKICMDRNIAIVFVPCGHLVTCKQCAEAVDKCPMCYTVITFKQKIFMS

[13] = biological target: T5, E3 ubiquitin-protein ligase XIAP; experiment: Counter Screen using XIAP-Bir3 for Chemical Antagonists of Bir1/2 domains of IAP-family anti-apoptotic proteins. [Related pubchem assays (depositor defined):AID1018, AID1449, AID1514, AID1638, AID1749, AID1750, AID488957, AID488963]
Genome polyprotein = Genome polyprotein (dengue virus type 2, UniProt P29990); experiment: flavivirus cap methylation enzyme inhibition – biochemical, confirmation dose response, primary screen (AID 588689); format: functional
Cytochrome P450 3A4 = Cytochrome P450 3A4 (Homo sapiens, UniProt P08684);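 further: CYP3A4 tested as one member of a cytochrome P450 panel screen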
Cytochrome P450 3A4, sequence (P08684 whole entry): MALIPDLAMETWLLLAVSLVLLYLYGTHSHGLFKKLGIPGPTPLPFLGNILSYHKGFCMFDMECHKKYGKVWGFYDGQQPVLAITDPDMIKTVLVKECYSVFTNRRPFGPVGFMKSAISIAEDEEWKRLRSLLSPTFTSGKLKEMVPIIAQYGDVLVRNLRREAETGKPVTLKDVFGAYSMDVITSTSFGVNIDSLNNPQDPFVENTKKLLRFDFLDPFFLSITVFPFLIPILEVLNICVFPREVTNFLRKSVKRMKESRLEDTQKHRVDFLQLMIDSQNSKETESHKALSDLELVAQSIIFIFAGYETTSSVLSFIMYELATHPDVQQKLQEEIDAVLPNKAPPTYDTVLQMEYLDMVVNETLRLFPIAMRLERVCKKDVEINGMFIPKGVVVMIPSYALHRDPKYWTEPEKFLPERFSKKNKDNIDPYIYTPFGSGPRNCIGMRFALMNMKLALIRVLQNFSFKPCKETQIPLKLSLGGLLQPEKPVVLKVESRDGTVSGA

Cytochrome P450 2D6 = Cytochrome P450 2D6 (Homo sapiens, UniProt P10635);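 further: CYP2D6 member of a cytochrome P450 panel assay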
Cytochrome P450 2D6, sequence (P10635 whole entry): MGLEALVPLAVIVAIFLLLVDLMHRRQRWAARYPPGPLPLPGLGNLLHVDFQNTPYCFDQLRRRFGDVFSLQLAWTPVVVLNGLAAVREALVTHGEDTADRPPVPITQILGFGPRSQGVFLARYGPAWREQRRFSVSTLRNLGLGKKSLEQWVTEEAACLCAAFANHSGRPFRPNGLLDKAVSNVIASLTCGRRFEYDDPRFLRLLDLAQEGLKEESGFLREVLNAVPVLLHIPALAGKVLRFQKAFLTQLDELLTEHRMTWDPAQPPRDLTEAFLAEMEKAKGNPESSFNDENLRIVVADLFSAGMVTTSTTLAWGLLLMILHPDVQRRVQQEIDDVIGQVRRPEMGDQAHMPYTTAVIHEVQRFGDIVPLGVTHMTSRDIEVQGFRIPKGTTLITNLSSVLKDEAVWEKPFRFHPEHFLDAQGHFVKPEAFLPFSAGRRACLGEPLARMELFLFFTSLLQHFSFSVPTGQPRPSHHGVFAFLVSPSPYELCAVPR

Cytochrome P450 2C19 = Cytochrome P450 2C19 (Homo sapiens, UniProt P33261); experiment: Cytochrome panel assay with activity outcomes. Panel member name: p450-cyp2c19 Compounds with AC50 equal or less than 10 uM are considered active; format: functional; conditions: read-out: AC50
[14] = biological target: T2, Sphingosine 1-phosphate receptor 4; experiment: Late-stage fluorescence dose response cell-based assay to identify agonists of the Sphingosine 1-Phosphate Receptor 4 (S1P4): purchased compounds EC50. [Related pubchem assays (depositor defined):AID1509, AID1523, AID1563, AID1686, AID1701, AID1801]; format: functional
Hexokinase = Hexokinase (Trypanosoma brucei, UniProt Q38C41); experiment: Confirmation assay for inhibitors of Trypanosoma brucei hexokinase 1-Analogue-first series. [Related pubchem assays (depositor defined):AID1430, AID1632, AID2516, AID2560, AID2579, AID2600, AID449725, AID492951]; format: functional
Hexokinase, sequence (Q38C41 whole entry): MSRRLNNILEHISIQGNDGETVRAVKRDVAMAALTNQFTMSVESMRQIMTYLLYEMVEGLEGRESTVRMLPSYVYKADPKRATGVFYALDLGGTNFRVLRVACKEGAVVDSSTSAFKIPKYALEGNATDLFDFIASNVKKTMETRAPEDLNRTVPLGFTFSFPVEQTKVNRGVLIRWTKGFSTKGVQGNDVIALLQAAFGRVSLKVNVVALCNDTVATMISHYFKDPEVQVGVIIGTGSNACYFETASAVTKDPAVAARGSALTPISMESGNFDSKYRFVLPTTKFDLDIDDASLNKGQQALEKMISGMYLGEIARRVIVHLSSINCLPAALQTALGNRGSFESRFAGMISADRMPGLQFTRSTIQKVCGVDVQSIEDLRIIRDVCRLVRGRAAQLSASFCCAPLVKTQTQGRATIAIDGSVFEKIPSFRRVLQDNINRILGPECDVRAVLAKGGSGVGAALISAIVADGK

[15] = viability loss in THP-1 monocytes – THP-1 cells, cytotoxicity control for Vif-APOBEC3G degradation inhibitor project, dose response (AID 1117359); format: functional; conditions: THP-1
Bcl-2-like protein 1 = Bcl-2-like protein 1 (Homo sapiens, UniProt Q07817); experiment: blockers of BCLXL peptide binding – biochemical, fluorescence polarization, 1536-well, selectivity assay for MCL1 inhibitor project, dose response (AID 2218)
Bcl-2-like protein 1, sequence (Q07817 whole entry): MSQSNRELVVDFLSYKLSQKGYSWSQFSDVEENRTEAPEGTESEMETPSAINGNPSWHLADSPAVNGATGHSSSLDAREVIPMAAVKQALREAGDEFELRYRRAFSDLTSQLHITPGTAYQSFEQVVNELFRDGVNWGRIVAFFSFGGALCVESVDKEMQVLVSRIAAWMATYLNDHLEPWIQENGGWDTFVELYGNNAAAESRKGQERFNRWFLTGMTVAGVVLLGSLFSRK

Estrogen receptor beta = Estrogen receptor beta (Homo sapiens, UniProt Q92731); experiment: blockers of SRC-3 recruitment to ERβ – biochemical, ELISA, streptavidin-HRP readout, orthogonal assay, confirmation (AID 1060)
Estrogen receptor beta, sequence (Q92731 whole entry): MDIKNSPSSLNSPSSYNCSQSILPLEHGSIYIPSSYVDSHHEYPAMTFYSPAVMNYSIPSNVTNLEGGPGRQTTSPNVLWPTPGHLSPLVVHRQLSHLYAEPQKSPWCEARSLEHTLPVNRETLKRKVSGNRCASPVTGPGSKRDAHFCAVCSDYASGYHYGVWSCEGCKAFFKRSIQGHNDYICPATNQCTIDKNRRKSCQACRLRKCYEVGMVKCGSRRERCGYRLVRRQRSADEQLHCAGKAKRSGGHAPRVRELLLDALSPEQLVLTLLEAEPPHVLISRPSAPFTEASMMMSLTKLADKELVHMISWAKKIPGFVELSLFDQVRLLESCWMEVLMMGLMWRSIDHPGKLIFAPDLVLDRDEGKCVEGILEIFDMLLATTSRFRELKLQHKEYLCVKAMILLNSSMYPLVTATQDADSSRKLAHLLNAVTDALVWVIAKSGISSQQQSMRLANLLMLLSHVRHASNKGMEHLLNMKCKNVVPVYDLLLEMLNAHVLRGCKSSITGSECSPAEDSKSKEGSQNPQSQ

Protein Tat = Protein Tat (Human immunodeficiency virus type 1 group M subtype B (isolate HXB2)(HIV-1), UniProt P04608); format: functional;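 further: tat binding to TAR RNA read out by fluorescence polarization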
Protein Tat, sequence (P04608 whole entry): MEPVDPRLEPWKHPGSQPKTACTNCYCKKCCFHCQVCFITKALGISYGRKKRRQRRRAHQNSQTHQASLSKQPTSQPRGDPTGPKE

Bcl-2-like protein 10 = Bcl-2-like protein 10 (Homo sapiens, UniProt Q9HD36); experiment: Bcl-B/TR3 peptide binding disruption – biochemical, fluorescence polarization, FITC-TR3 peptide, selectivity assay for Bfl-1 inhibitor project, primary screen (AID 748);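 further: fluorescence polarization from a fluorescein-labelled TR3 peptide binding purified Bcl-B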
Bcl-2-like protein 10, sequence (Q9HD36 whole entry): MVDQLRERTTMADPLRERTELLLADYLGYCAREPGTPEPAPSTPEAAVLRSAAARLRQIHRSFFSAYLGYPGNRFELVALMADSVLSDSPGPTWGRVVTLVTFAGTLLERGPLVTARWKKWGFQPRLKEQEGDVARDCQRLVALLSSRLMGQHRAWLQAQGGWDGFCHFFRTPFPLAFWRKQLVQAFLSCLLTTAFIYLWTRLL

[16] = biological target: Induced myeloid leukemia cell differentiation protein Mcl-1 (Homo sapiens, UniProt Q07820); experiment: blockers of MCL1 binding to BIM peptide – biochemical, fluorescence polarization, BIM-BH3 peptide, 1536-well, dose response (AID 2217)

SMILES: O=C(c1ccc(S(=O)(=O)Cc2ccccc2Cl)c([N+](=O)[O-])c1)N1CCN(c2ccccn2)CC1
- IC50 (HEK293 [1]): 16.3 µM (active)
- EC50 (HEK293 [2]): 11.8 µM (active)
- IC50 (Tumor necrosis factor): 4.53 µM (active)
- IC50 (HEK293 [3]): 3.63 µM (active)
- IC50 (HEK293 [4]): > 20 µM (inactive)
- IC50 [5]: 4.24 µM (active)
- IC50 (HEK293 [6]): 2.81 µM (active)
- AC50 [7]: 9.49 µM (active)

SMILES: N#Cc1c(-n2cccc2C=O)sc2c1CCCC2
- EC50 [8]: 32.2 µM (not active)
- EC50 [9]: > 49.8 µM (inactive)

SMILES: Cc1cc(-n2c(=O)c(C#N)cc3c(=O)n4ccccc4nc32)no1
- EC50 [8]: 4.43 µM (active)
- EC50 [9]: 10.1 µM (inactive)

SMILES: O=C(NCC1CCCO1)c1ccc(COCC(F)(F)C(F)F)cc1 (centres undefined)
- IC50 (Coagulation factor XII): > 50 µM (inactive)

SMILES: O=S(=O)(Nc1cnc2ccccc2c1)c1cc(Cl)cc(Cl)c1O
- IC50 [10]: 69.6 µM (active)
- IC50 [11]: > 100 µM (not active)

SMILES: CCc1c(C)sc(NC(=O)OC)c1C(=O)N1CCCCC1
- IC50 [12]: > 25 µM (not active)
- IC50 [13]: 54.6 µM (active)
- IC50 (Genome polyprotein): > 100 µM (active)

SMILES: COc1ccc(-n2nc(C(=O)N3CCN(Cc4ccc5c(c4)OCO5)CC3)c3ccccc3c2=O)cc1
- IC50 [12]: > 100 µM (not active)
- IC50 [13]: > 100 µM (inactive)

SMILES: O=C(Nc1ccc(Cl)c(Cl)c1)N1CC=CCC1
- IC50 (Coagulation factor XII): > 50 µM (inactive)

SMILES: COC(=O)N1CCC2(CC1)CCN(c1ccccn1)CC2
- AC50 (Cytochrome P450 3A4): inconclusive
- AC50 (Cytochrome P450 2D6): 10 µM (inconclusive)
- AC50 (Cytochrome P450 2C19): 10 µM (inconclusive)

SMILES: Cc1ccc(OCc2cn3cc(Cl)ccc3n2)c([N+](=O)[O-])n1
- EC50 [14]: > 50 µM (inactive)

SMILES: Cc1ccc(OC(C)C(=O)Nc2ccc(Cl)cc2Cl)c([N+](=O)[O-])n1 (centres undefined)
- EC50 [14]: > 50 µM (inactive)

SMILES: CCCc1ccc(C(=O)Nc2cc(Cl)ccc2C(=O)O)cc1
- IC50 (Hexokinase): 4.54 µM (active)

SMILES: O=C(Nc1ccc(S(=O)(=O)O)cc1)c1ccc(CN2CCc3ccccc3C2)cc1
- IC50 (HEK293 [1]): > 20 µM (inactive)
- IC50 (Tumor necrosis factor): > 20 µM (inactive)
- IC50 [5]: > 20 µM (inactive)

SMILES: CC(=N)/C(C#N)=C(/O)CSc1nnc(NC(C)C)s1
- CC50 [15]: > 40 µM (active)
- IC50 (Bcl-2-like protein 1): > 109 µM (not active)
- IC50 (Estrogen receptor beta): < 0.023 µM (not active)
- IC50 (Protein Tat): > 100 µM (active)
- IC50 (Bcl-2-like protein 10): 23.7 µM (active)
- IC50 [16]: 16.3 µM (not active)

SMILES: Cc1cc(=O)n(-c2ccccc2)s1
- IC50 (Hexokinase): > 25 µM (inactive)

SMILES: COc1ccc(OC)c(S(=O)(=O)Nc2ccc3ccccc3c2)c1
- IC50 [10]: > 10 µM (inactive)
- IC50 [11]: > 10 µM (inconclusive)
